Data taken from patent publication US5496844A, “Indole derivatives” (Otsuka Pharmaceutical Factory, Inc., priority 1992, dated 1996).

target: T1, rat uterus cytoplasm estrogen receptor (Rattus norvegicus, UniProt P06211); assay: inhibition of specific binding of [3H]-moxestrol to rat uterus cytoplasm estrogen receptor; design: species or system rat (female SD); details: relative to moxestrol as control compound; rat uterus cytoplasm fraction; 4° C., 16 hours; DCC method
T1 construct: the homogenate was centrifuged to give a cytoplasm fraction; from tissue; host or cells: uterus of female SD rats aged 3 to 4 weeks, cytoplasm fraction
T1 sequence (P06211 1-600): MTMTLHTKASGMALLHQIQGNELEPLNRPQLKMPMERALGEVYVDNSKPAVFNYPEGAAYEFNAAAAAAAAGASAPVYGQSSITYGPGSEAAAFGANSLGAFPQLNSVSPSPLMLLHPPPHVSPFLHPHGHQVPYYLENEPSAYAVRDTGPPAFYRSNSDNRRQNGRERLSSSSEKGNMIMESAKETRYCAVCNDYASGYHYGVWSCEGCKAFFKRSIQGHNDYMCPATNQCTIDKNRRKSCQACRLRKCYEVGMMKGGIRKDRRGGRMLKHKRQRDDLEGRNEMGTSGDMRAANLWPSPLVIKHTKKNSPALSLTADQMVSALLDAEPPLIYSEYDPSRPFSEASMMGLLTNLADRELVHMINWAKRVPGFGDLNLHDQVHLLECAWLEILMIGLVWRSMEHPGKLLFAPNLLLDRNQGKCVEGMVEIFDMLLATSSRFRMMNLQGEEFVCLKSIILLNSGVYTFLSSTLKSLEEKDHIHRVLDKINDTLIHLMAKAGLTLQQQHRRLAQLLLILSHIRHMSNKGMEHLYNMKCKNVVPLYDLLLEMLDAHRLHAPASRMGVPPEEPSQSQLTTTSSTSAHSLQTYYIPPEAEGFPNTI
Procedure: Test for inhibitory activity against the specific binding of [^3 H]-moxestrol to the rat uterus cytoplasm estrogen receptor
The above activity was measured essentially as described in the literature [J. Biol. Chem., 258 (5), 3173 (1973) and Biochem. Pharmacol., 43 (12), 2511 (1992)].
Thus, the uterus was excised from female SD rats aged 3 to 4 weeks and homogenized in 6 volumes of TETG buffer (10 mM Tris-hydrochloride, 1 mM EDTA, 12 mM thioglycerol and 10% glycerol) and the homogenate was centrifuged to give a cytoplasm fraction. ^3 H-Moxestrol and each test compound were added to this cytoplasm fraction and each mixture was incubated at 4° C. for 16 hours to allow binding to the estrogen receptor in the cytoplasm fraction.
Then, the free form of ^3 H-moxestrol was removed by the DCC method and the bound form of ^3 H-moxestrol was quantitated using a liquid scintillation counter.
Moxestrol was used as a control compound and the relative binding affinity (RBA), which was defined as the ^3 H-moxestrol binding inhibiting effect (IC50) ratio, was determined as follows: [formula]
The thus-obtained RBA values for the respective test compounds are shown below in Table 21.

Row | RBA (relative binding affinity, 3H-moxestrol binding inhibiting effect (IC50) ratio) [%] | SMILES
1 | 114 | CSc1ccc(-c2c(C)c3cc(O)ccc3n2CCCCCCCCNC(C)(C)C)cc1 [Example 282]
2 | 50 | O=C(c1ccc(OCCN2CCCC2)cc1)n1c(-c2ccc(Sc3ccccc3)cc2)cc2cc(O)ccc21 [Example 234, 5-hydroxy-2-(4-phenylthiophenyl)-1-[4-{2-(1-pyrrolidinyl)ethoxy}benzoyl]indole]
3 | 70 | CSc1ccc(-c2c(C)c3cc(O)ccc3n2CCCCCCN2CCSC2)cc1 [Example 291]
4 | 93 | CSc1ccc(-c2c(C)c3cc(O)ccc3n2CCCCCCCCN2CCCCC2)cc1 [Example 285]
5 | 121 | CSc1ccc(-c2c(C)c3cc(O)ccc3n2CCCCCCCCN2CCCC2)cc1 [Example 281, 5-hydroxy-3-methyl-2-(4-methylthiophenyl)-1-[8-(1-pyrrolidinyl)octyl]indole]
6 | 65 | CSc1ccc(-c2c(C)c3cc(O)ccc3n2CCCCCCCCNC(C)C)cc1 [Example 274]
7 | 41 | CSc1ccc(-c2c(C)c3cc(O)ccc3n2CCCCCCCC(=O)N2CCCCC2)cc1 [Example 258]
8 | 78 | CSc1ccc(-c2c(C)c3cc(O)ccc3n2CCCCCCCC(=O)NC2CCC2)cc1 [Example 254]
9 | 57 | CSc1ccc(-c2c(C)c3cc(O)ccc3n2CCCCCCNC(C)(C)C)cc1 [Example 178]
10 | 116 | CSc1ccc(-c2c(C)c3cc(O)ccc3n2CCCCCCCCNC2CCC2)cc1 [Example 280]
11 | 82 | CSc1ccc(-c2c(C)c3cc(O)ccc3n2CCCCCCCCN(C)C)cc1 [Example 279]
12 | 42 | CSc1ccc(-c2c(C)c3cc(O)ccc3n2CCCCCCNC(C)c2ccccc2)cc1 (stereo not drawn) [Example 312, 5-hydroxy-3-methyl-2-(4-methylthiophenyl)-1-[6-(1-phenylethyl)aminohexyl]indole]
13 | 73 | O=C(c1ccc(OCCCN2CCCCC2)cc1)n1c(-c2ccc(Sc3ccccc3)cc2)cc2cc(O)ccc21 [Example 239]
14 | 52 | CSc1ccc(-c2c(C)c3cc(O)ccc3n2CCCCCCNCc2ccccc2)cc1 [Example 181]
15 | 57 | O=C(c1ccc(OCCn2cncn2)cc1)n1c(-c2ccc(Sc3ccccc3)cc2)cc2cc(O)ccc21 [Example 246]
16 | 44 | CSc1ccc(-c2c(C)c3cc(O)ccc3n2CCCCCCNC2CCCC2)cc1 [Example 172]
17 | 64 | CSc1ccc(-c2c(C)c3cc(O)ccc3n2CCCCCCNC2CC2)cc1 [Example 176]
18 | 60 | CSc1ccc(-c2c(C)c3cc(O)ccc3n2CCCCCCNC2CCC2)cc1 [Example 175, 1-(6-cyclobutylaminohexyl)-5-hydroxy-3-methyl-2-(4-methylthiophenyl)indole]
19 | 53 | O=C(c1ccc(OCCN2CCCCC2)cc1)n1c(-c2ccc(Sc3ccccc3)cc2)cc2cc(O)ccc21 [Example 236]
20 | 51 | CCSc1ccc(-c2cc3cc(O)ccc3n2CCCCCCCCNC(C)C)cc1 [Example 286]
21 | 60 | CCC(C)NCCCCCCn1c(-c2ccc(SC)cc2)c(C)c2cc(O)ccc21 (stereo not drawn) [Example 179]
22 | 41 | CSc1ccc(-c2c(C)c3cc(O)ccc3n2CCCCCCCC(=O)NC(C)(C)C)cc1 [Example 255]
23 | 49 | O=C(c1ccc(OCCCN2CCCC2)cc1)n1c(-c2ccc(Sc3ccccc3)cc2)cc2cc(O)ccc21 [Example 238]
24 | 48 | CSc1ccc(-c2c(C)c3cc(O)ccc3n2CCCCCCCCN2CCOCC2)cc1 [Example 272]
25 | 57 | CCC(C)(C)NCCCCCCn1c(-c2ccc(SC)cc2)c(C)c2cc(O)ccc21 [Example 182]
26 | 94 | CSc1ccc(-c2c(C)c3cc(O)ccc3n2CCCCCCCC(=O)N(C)C)cc1 [Example 253]
27 | 46 | Cc1c(-c2ccc(Sc3ccccc3)cc2)n(CCCCCCNC(C)C)c2ccc(O)cc12 [Example 161]
